According to the supplement of paper PMC10307832:

Legend:
Experiment in all cases: relative viability (nuclei count vs DMSO), 5 days (fraction); higher = more cells survive
Pifithrin_alpha = compound: CC1=CC=C(C=C1)C(=O)CN2C3=C(CCCC3)SC2=N [Pifithrin_alpha]
Procedure, shortened: (§1)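 Acceptance criteria were a control CV below 25% and at least one doubling per plate. Lung cancer cell lines in 1536-well plates got five library-drug doses (not always all listed) √10 apart by pinning and were left 5 days with no medium change. Viability divides treated-well nuclei by vehicle-well nuclei and is the median across plates. Nuclei were counted by MetaXpress from 4× Hoechst images.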

Axitinib = compound: CNC(=O)c1ccccc1Sc1ccc2c(/C=C/c3ccccn3)n[nH]c2c1 [Axitinib]
Procedure, shortened: as §1

Bemcentinib = compound: Nc1nc(Nc2ccc3c(c2)CC[C@@H](N2CCCC2)CC3)nn1-c1cc2c(nn1)-c1ccccc1CCC2 [Bemcentinib]
Procedure, shortened: as §1

Axitinib + Crizotinib = compound: CNC(=O)c1ccccc1Sc1ccc2c(/C=C/c3ccccn3)n[nH]c2c1 [Axitinib] + C[C@@H](Oc1cc(-c2cnn(C3CCNCC3)c2)cnc1N)c1c(Cl)ccc(F)c1Cl [Crizotinib] (partner 1 µM)
Procedure, shortened: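 Values are medians from duplicate plates. Each reflects relative viability, defined as the nuclei count of treated wells over that of vehicle wells. Lung cancer cell lines in 1536-well plates were pin-tool dosed one day after seeding with one drug alone or with a fixed anchor-drug dose plus five library-drug doses (not always all listed) in √10 steps, then fixed, stained and imaged at 4× after 5 days.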

Row | Cell Line | relative viability (Pifithrin_alpha; 1 µM) | relative viability (Pifithrin_alpha; 3.162 µM) | relative viability (Pifithrin_alpha; 10 µM) | relative viability (Pifithrin_alpha; 31.62 µM) | relative viability (Pifithrin_alpha; 100 µM) | relative viability (Axitinib; 0.005 µM) | relative viability (Axitinib; 0.01581 µM) | relative viability (Axitinib; 0.05 µM) | relative viability (Axitinib; 0.1581 µM) | relative viability (Axitinib; 0.5 µM) | relative viability (Bemcentinib; 0.04 µM) | relative viability (Bemcentinib; 0.1265 µM) | relative viability (Bemcentinib; 0.4 µM) | relative viability (Bemcentinib; 1.265 µM) | relative viability (Bemcentinib; 4 µM) | relative viability (Axitinib + Crizotinib; first compound 0.005 µM) | relative viability (Axitinib + Crizotinib; first compound 0.01581 µM) | relative viability (Axitinib + Crizotinib; first compound 0.05 µM) | relative viability (Axitinib + Crizotinib; first compound 0.1581 µM) | relative viability (Axitinib + Crizotinib; first compound 0.5 µM)
1 | HCC-15 | 0.938 | 1.02 | 0.931 | 0.674 | 0.808 | 1.06 | 0.99 | 1 | 0.98 | 0.947 | 0.964 | 1.13 | 1.05 | 1.07 | 1.07 | 0.907 | 0.84 | 0.793 | 0.696 | 0.825
2 | HCC-44 | 0.819 | 0.911 | 0.911 | 0.736 | 0.856 | 1.01 | 0.971 | 0.977 | 0.987 | 0.988 | 0.984 | 1.03 | 1.01 | 1.02 | 0.988 | 0.898 | 0.834 | 0.841 | 0.792 | 0.869
3 | HCC-78 | 0.669 | 0.892 | 0.815 | 0.694 | 0.823 | 0.978 | 1.02 | 0.893 | 0.936 | 0.867 | 0.752 | 0.926 | 1.07 | 0.791 | 0.957 | 0.345 | 0.35 | 0.301 | 0.338 | 0.375
4 | HCC-366 | 1.01 | 0.974 | 1.01 | – | 1.04 | 0.99 | 0.999 | 1.06 | 1 | 1.04 | 1.07 | 1.07 | 0.987 | 0.986 | 0.995 | 0.628 | 0.657 | 0.603 | 0.487 | 0.669
5 | HCC-827 | 1.03 | 1.02 | 0.977 | 0.809 | 0.896 | 1.03 | 1.01 | 1.06 | 1.1 | 1.15 | 1.07 | 1.05 | 0.994 | 0.976 | 1.06 | 0.882 | 0.905 | 0.914 | 0.886 | 0.943
6 | HOP-62 | 0.952 | 1.1 | 1.06 | 0.791 | 1.12 | 1.01 | 0.965 | 1.03 | 1.01 | 1.03 | 1.01 | 1.15 | 0.999 | 1.02 | 1.04 | 0.941 | 1.1 | 0.93 | 0.981 | 0.929
7 | IA-LM | 0.853 | 0.993 | 0.555 | 0.491 | 0.418 | 1.03 | 0.954 | 0.987 | 0.999 | 0.88 | 0.946 | 1.19 | 0.975 | 0.995 | 0.977 | 0.95 | 0.737 | 1.05 | 1.04 | 0.982
8 | LC-2-ad | 0.702 | 1 | 0.96 | 0.697 | 0.832 | 1 | 0.963 | 1.03 | 0.956 | 1.02 | 0.903 | 0.988 | 0.99 | 0.971 | 0.972 | 0.404 | 0.483 | 0.496 | 0.424 | 0.597
9 | LCLC-97TM1 | – | 0.934 | 1.13 | – | 0.975 | 1.06 | 1.02 | 0.986 | 0.892 | 0.822 | 0.997 | 1.09 | 0.801 | 1.03 | 0.982 | 0.433 | 0.524 | 0.265 | 0.377 | 0.314
10 | LCLC-103H | 0.996 | 0.974 | 0.959 | 0.848 | 0.887 | 0.946 | 0.973 | 1 | 0.959 | 0.867 | 0.992 | 1.07 | 0.96 | 1.04 | 0.994 | 1.11 | 1.13 | 1 | 1.1 | 1.06
11 | LK-2 | 0.975 | 1.18 | 1.12 | – | 1.25 | 0.976 | 0.746 | 0.816 | 0.823 | 0.822 | 0.969 | 1.26 | 1.25 | 1.06 | 1.01 | 0.235 | 0.264 | 0.252 | 0.219 | 0.216
12 | NCI-H522 | 0.79 | 1.12 | 0.947 | 0.85 | 0.972 | 0.914 | 0.969 | 0.996 | 0.882 | 0.693 | 0.927 | 0.96 | 1.06 | 0.9 | 0.879 | – | – | – | – | –
13 | NCI-H1395 | – | 0.902 | 0.915 | 0.693 | 0.85 | 0.992 | 0.719 | 0.985 | 0.886 | 0.878 | 0.893 | 1.02 | 0.952 | 0.892 | 0.838 | – | – | – | – | –
14 | NCI-H1623 | 0.905 | 0.924 | 0.834 | 0.677 | 0.803 | 1.12 | 0.945 | 0.884 | 1.02 | 0.984 | 0.956 | 0.935 | 0.971 | 1.03 | 0.929 | – | – | – | – | –
15 | NCI-H1648 | 0.791 | 0.852 | 0.869 | 0.625 | 0.691 | 1.03 | 0.984 | 0.61 | 0.882 | 0.632 | 0.85 | 1.06 | 1.07 | 0.724 | 0.694 | – | – | – | – | –
16 | NCI-H1793 | 0.734 | 0.817 | 0.838 | 0.823 | 0.874 | 1.06 | 0.833 | 0.889 | 0.819 | 0.647 | 0.834 | 1.05 | 0.882 | 0.686 | 0.999 | – | – | – | – | –
17 | NCI-H2342 | 0.916 | 0.928 | 0.884 | 0.976 | 0.929 | 0.975 | 1.14 | 1.01 | 1.09 | 0.775 | 0.949 | 1.06 | 1.01 | 0.932 | 1.01 | – | – | – | – | –
18 | SW 900 | 0.706 | 0.643 | 0.75 | 0.648 | 0.653 | 0.929 | 0.584 | 0.724 | 0.92 | 1.01 | 0.772 | 0.97 | 0.913 | 0.742 | 0.871 | – | – | – | – | –
